ChEMBL document CHEMBL3627608, “Crystal structures of human RIP2 kinase catalytic domain complexed with ATP-competitive inhibitors: Foundations for understanding inhibitor selectivity” (Bioorg Med Chem, 2015)

Legend:
[1] = target: High affinity nerve growth factor receptor (Homo sapiens) (UniProt P04629); assay: Inhibition of TRKA (unknown origin) at 10 uM after 120 mins P33 radiolabeled kinase activity assay
[2] = target: Receptor-interacting serine/threonine-protein kinase 3 (Homo sapiens) (UniProt Q9Y572); assay: Inhibition of RIPK3 (unknown origin) at 10 uM after 120 mins P33 radiolabeled kinase activity assay
Chain of Receptor-interacting serine/threonine-protein kinase 3 (Homo sapiens) (Q9Y572 whole entry, looked up): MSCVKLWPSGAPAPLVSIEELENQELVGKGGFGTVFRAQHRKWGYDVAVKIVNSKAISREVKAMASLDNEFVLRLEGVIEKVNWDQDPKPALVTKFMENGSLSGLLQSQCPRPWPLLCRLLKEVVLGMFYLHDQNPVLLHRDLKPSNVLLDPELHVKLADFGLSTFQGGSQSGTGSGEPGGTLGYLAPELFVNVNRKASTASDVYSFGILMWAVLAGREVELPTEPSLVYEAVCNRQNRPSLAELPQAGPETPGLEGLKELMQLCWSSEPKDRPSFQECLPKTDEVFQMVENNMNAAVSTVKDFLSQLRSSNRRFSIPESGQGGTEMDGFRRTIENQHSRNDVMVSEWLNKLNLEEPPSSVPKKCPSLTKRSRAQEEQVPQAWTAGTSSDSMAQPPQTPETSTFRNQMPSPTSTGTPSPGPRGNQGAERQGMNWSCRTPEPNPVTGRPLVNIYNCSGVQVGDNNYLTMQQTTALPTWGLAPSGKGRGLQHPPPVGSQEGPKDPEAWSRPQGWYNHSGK

[3] = target: Mitogen-activated protein kinase 8 (Homo sapiens) (UniProt P45983); assay: Inhibition of JNK1 (unknown origin) at 10 uM after 120 mins P33 radiolabeled kinase activity assay
Chain of Mitogen-activated protein kinase 8 (Homo sapiens) (P45983 whole entry): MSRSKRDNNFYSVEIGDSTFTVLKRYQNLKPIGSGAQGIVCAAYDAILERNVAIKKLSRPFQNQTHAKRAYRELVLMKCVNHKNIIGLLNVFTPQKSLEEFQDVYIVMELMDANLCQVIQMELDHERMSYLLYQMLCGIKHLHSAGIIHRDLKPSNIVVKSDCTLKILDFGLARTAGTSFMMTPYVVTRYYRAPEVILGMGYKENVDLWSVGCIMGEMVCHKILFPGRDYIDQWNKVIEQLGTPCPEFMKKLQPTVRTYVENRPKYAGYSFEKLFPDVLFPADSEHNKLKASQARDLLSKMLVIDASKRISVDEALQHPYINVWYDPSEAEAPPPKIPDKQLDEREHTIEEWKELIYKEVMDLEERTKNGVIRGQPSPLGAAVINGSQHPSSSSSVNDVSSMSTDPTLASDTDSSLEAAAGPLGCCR

[4] = target: T1, Serine/threonine-protein kinase 17A (Homo sapiens) (UniProt Q9UEE5); assay: Inhibition of DRAK1 (unknown origin) at 10 uM after 120 mins P33 radiolabeled kinase activity assay
T1 sequence (whole entry): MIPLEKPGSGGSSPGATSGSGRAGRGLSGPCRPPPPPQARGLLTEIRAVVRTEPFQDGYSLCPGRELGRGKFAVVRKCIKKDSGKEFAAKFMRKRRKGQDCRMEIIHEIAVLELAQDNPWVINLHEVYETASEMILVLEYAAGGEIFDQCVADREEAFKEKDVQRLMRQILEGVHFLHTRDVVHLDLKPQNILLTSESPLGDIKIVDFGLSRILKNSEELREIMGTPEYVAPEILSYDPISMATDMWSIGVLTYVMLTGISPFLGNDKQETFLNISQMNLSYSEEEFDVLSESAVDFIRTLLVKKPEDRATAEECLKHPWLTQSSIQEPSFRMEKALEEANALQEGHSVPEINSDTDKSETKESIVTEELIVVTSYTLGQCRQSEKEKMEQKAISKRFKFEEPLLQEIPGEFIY

[5] = target: Mitogen-activated protein kinase kinase kinase 20 (Homo sapiens) (UniProt Q9NYL2); assay: Inhibition of ZAK (unknown origin) at 10 uM after 120 mins P33 radiolabeled kinase activity assay
Chain of Mitogen-activated protein kinase kinase kinase 20 (Homo sapiens) (Q9NYL2 2-800 limits assumed): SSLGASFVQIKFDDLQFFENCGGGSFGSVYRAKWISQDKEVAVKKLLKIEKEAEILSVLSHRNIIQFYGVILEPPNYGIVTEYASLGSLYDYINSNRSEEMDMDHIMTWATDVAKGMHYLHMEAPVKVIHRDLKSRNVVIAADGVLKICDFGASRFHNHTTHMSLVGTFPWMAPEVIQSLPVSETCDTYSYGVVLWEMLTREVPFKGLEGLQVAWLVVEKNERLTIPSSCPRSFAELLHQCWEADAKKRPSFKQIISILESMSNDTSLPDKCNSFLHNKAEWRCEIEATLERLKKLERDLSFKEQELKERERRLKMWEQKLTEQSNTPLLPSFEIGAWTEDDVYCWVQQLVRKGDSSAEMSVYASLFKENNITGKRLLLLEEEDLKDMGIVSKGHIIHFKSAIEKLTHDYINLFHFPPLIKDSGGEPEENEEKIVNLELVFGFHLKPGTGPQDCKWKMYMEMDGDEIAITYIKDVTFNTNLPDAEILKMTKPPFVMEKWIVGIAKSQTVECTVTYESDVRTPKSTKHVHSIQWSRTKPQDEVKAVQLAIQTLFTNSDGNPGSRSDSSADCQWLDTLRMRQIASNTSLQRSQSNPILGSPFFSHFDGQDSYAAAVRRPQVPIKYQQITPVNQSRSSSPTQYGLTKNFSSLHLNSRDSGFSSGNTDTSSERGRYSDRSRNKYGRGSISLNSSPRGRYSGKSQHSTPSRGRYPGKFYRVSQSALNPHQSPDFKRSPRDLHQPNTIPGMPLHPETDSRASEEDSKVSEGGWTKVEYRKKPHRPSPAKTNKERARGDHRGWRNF

Homo sapiens = species: Homo sapiens; assay: Inhibition of PKG1beta (unknown origin) at 10 uM after 120 mins P33 radiolabeled kinase activity assay
[6] = target: CDK6/cyclin D1 (Homo sapiens) (UniProt P24385+Q00534); assay: Inhibition of CDK6/cyclin D1 (unknown origin) at 10 uM after 120 mins P33 radiolabeled kinase activity assay; assay type: protein-complex assay
[7] = target: Mitogen-activated protein kinase kinase kinase 1 (Homo sapiens) (UniProt Q13233); assay: Inhibition of MEKK1 (unknown origin) at 10 uM after 120 mins P33 radiolabeled kinase activity assay
Chain of Mitogen-activated protein kinase kinase kinase 1 (Homo sapiens) (Q13233 whole entry): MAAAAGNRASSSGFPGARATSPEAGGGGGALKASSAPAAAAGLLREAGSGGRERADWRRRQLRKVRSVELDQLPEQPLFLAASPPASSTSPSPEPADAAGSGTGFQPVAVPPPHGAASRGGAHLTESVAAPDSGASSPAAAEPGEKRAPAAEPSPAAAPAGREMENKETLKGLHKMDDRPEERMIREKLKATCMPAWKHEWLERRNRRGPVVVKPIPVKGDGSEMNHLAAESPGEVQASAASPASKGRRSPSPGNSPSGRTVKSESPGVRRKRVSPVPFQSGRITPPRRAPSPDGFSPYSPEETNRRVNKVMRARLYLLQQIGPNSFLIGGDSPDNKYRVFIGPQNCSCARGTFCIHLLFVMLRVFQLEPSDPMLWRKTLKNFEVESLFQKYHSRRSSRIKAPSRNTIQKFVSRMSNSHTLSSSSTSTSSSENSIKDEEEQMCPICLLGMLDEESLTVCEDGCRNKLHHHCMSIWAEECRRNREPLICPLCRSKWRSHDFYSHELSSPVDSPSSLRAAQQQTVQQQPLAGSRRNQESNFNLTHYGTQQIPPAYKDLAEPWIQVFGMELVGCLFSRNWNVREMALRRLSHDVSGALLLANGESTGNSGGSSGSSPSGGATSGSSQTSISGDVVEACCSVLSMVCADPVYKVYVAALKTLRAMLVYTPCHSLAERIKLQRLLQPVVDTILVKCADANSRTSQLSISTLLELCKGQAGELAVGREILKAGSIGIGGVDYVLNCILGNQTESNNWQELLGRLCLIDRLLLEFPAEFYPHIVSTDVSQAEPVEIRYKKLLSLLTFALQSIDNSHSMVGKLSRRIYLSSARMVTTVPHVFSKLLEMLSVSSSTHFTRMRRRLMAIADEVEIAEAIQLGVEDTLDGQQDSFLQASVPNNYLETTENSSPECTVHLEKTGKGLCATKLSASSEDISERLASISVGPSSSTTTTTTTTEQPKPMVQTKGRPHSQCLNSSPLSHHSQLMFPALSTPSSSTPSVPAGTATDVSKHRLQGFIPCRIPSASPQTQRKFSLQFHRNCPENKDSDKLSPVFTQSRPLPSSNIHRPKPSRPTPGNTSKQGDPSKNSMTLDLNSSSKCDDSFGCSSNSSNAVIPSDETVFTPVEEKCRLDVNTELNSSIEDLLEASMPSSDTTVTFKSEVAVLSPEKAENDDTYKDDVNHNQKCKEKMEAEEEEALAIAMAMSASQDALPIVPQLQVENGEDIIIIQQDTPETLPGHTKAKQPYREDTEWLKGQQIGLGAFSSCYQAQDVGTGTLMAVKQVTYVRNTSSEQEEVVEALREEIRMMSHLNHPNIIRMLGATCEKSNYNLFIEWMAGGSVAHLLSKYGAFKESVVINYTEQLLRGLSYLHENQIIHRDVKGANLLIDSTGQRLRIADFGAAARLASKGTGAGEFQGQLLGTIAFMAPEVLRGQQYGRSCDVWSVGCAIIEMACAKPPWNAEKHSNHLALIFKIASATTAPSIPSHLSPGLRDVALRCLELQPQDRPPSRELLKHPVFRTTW

[8] = target: MAP kinase-activated protein kinase 3 (Homo sapiens) (UniProt Q16644); assay: Inhibition of MAPKAPK3 (unknown origin) at 10 uM after 120 mins P33 radiolabeled kinase activity assay
Chain of MAP kinase-activated protein kinase 3 (Homo sapiens) (Q16644 whole entry, looked up): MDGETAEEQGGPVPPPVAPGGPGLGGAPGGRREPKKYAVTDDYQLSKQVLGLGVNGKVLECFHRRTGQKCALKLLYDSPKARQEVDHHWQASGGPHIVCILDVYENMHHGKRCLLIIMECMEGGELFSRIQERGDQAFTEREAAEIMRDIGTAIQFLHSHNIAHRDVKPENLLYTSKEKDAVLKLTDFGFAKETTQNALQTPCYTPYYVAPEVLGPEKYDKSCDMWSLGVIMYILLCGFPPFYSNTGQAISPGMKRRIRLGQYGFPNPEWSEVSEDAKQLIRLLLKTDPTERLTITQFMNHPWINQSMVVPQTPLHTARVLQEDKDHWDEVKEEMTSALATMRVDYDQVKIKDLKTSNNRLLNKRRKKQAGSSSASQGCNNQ

[9] = target: SRSF protein kinase 1 (Homo sapiens) (UniProt Q96SB4); assay: Inhibition of SRPK1 (unknown origin) at 10 uM after 120 mins P33 radiolabeled kinase activity assay
[10] = target: T2, MAP/microtubule affinity-regulating kinase 4 (Homo sapiens) (UniProt Q96L34); assay: Inhibition of MARK4 (unknown origin) at 10 uM after 120 mins P33 radiolabeled kinase activity assay
T2 sequence (whole entry): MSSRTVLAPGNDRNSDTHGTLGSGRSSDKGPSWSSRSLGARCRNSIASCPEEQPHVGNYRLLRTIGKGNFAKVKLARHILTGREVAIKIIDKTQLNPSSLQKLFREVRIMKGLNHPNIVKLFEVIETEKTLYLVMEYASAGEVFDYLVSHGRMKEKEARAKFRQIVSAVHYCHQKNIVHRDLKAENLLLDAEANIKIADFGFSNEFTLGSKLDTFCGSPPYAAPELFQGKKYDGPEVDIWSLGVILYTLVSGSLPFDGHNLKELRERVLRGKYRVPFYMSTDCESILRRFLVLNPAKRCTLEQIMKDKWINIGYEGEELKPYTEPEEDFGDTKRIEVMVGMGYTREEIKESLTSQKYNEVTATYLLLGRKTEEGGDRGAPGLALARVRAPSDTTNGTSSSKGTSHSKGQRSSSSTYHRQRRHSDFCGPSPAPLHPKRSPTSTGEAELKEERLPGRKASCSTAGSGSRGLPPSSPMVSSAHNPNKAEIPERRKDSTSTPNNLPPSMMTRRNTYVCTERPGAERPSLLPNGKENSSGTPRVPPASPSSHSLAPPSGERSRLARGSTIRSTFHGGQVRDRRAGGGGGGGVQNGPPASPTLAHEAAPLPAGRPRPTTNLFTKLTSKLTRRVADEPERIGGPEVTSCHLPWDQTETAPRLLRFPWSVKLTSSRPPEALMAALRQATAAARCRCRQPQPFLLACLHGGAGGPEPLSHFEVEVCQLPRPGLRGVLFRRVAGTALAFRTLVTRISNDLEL

[11] = target: Cyclin-dependent kinase 7/ cyclin H (Homo sapiens) (UniProt P51946+P50613); assay: Inhibition of CDK7/cyclin H (unknown origin) at 10 uM after 120 mins P33 radiolabeled kinase activity assay; assay type: protein-complex assay
[12] = target: Serine/threonine-protein kinase 32B (Homo sapiens) (UniProt Q9NY57); assay: Inhibition of STK32B (unknown origin) at 10 uM after 120 mins P33 radiolabeled kinase activity assay
Chain of Serine/threonine-protein kinase 32B (Homo sapiens) (Q9NY57 whole entry): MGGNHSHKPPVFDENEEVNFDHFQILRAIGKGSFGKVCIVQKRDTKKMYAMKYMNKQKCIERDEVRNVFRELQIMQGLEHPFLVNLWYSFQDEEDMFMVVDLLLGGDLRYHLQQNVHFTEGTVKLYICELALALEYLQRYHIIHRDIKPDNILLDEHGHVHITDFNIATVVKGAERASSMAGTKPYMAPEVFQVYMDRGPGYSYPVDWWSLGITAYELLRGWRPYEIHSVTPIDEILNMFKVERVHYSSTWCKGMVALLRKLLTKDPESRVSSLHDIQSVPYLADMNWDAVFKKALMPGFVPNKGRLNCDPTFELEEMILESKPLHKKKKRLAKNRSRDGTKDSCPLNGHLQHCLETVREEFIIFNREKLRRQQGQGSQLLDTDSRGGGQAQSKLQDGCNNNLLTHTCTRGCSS

[13] = target: Serine/threonine-protein kinase OSR1 (Homo sapiens) (UniProt O95747); assay: Inhibition of OSR1 (unknown origin) at 10 uM after 120 mins P33 radiolabeled kinase activity assay
[14] = target: T3, Inhibitor of nuclear factor kappa-B kinase subunit beta (Homo sapiens) (UniProt O14920); assay: Inhibition of IKKbeta (unknown origin) at 10 uM after 120 mins P33 radiolabeled kinase activity assay
T3 sequence (whole entry): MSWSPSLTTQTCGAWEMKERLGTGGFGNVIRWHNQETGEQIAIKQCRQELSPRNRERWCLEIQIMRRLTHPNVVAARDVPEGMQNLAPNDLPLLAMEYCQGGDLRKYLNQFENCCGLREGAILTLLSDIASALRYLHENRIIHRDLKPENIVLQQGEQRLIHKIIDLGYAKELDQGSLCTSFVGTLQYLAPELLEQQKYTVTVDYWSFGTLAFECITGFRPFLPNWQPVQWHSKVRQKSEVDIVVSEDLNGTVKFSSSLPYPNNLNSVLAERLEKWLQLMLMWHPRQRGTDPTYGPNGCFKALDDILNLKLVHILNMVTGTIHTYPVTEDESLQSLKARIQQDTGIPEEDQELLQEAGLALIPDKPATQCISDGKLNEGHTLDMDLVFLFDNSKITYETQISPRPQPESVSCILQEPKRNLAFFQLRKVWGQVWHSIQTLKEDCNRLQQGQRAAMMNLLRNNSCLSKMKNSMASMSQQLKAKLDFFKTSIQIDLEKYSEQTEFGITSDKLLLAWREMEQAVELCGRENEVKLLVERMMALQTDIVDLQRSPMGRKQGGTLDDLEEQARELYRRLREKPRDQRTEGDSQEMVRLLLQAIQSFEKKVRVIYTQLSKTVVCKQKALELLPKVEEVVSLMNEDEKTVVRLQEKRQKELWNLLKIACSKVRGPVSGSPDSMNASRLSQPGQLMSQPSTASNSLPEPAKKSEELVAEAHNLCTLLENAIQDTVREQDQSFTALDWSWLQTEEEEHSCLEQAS

Chain of High affinity nerve growth factor receptor (Homo sapiens) (P04629 33-796 limits assumed): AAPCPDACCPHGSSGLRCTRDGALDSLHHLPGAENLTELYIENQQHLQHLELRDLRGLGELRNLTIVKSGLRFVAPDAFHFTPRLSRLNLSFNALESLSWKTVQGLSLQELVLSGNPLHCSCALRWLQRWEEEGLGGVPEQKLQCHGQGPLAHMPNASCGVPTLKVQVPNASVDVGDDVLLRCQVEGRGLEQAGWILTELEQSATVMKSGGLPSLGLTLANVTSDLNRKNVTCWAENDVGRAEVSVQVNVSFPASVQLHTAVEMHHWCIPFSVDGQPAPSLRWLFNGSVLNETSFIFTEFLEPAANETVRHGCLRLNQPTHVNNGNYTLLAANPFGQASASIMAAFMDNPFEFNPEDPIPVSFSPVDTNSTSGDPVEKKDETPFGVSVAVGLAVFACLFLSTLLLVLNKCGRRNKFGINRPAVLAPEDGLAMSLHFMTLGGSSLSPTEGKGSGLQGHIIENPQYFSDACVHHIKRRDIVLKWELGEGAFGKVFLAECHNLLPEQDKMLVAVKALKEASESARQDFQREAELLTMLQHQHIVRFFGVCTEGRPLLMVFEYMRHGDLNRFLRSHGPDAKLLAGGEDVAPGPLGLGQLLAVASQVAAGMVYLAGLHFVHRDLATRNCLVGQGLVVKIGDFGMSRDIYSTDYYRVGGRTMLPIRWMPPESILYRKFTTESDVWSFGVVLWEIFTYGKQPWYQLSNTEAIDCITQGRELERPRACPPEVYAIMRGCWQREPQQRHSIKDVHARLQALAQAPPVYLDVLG

inhibition [1] [%]	inhibition [2] [%]	inhibition [3] [%]	inhibition [4] [%]	inhibition [5] [%]	inhibition (Homo sapiens) [%]	inhibition [6] [%]	inhibition [7] [%]	inhibition [8] [%]	inhibition [9] [%]	inhibition [10] [%]	inhibition [11] [%]	inhibition [12] [%]	inhibition [13] [%]	inhibition [14] [%]	SMILES
5.11	27.6	2.55	5.43	38.8	-4.49	3.54	-3.24	0.16	5.66	12.5	2.11	-6.19	3.1	-5.88	COCCNC(=O)c1ccc2c(c1)nc(-c1cnc(-c3ccc(Cl)cc3)[nH]1)n2CCOC
39.8	83.1	31.4	1.47	99.8	2.75	26.4	-3	-3.69	18.5	39.1	16.1	24.6	10.1	1.51	CS(=O)(=O)c1cccc(Nc2nccc(-c3sc(N4CCOCC4)nc3-c3cccc(NS(=O)(=O)c4c(F)cccc4F)c3)n2)c1
97.2	81.4	14.2	8.49	99.8	15.2	17.4	25.2	-4.91	59.1	13.8	0.59	9.05	22.6	-0.16	CC(C)(C)c1cc(NC(=O)Nc2ccc(Oc3ccncc3)cc2)no1
